The text below walks through data of patent publication EP4104817A1, “OPHTHALMIC COMPOSITION COMPRISING ASTRAGALOSIDE IV” (Skeye Pharma GbR, priority 2021, dated 2022).

Each structure is given as a SMILES string.

Assay [1] deals with hCEC. The assay can be described thus: BrdU ELISA cell proliferation assay, 24 hours of treatment. Format: cell-based. As to conditions: Homo sapiens, compared to DMSO-treated control, mean ± standard deviation. As to the method:
Proliferation of hCEC was determined using a 5-bromo-2'-deoxyuridine (BrdU) ELISA in accordance with the manufacturers' recommendations (Merck KGaA, Darmstadt, Germany). In brief, approximately 7,000 cells were seeded onto a 96-well cell culture plate and incubated for 24h to achieve complete adherence of the cells. After 24 hours of incubation with 100 µl of corneal epithelial cell growth medium without its' supplement mix, hCECs were treated with astragaloside IV dissolved in DMSO. Following another 24 hours of incubation with BrdU labeling solution, cells were fixed and incubated with anti-BrdU antibodies according to the manufacturer's recommendations. BrdU incorporation into the DNA of hCECs was quantified by absorbance measurement at 450 nm using the ELISA reader Spectramax 190 (Molecular Devices, Sunnyvale, CA, USA).
(In general: Dividing cells build labelled thymidine or BrdU into new DNA.)

Assay [2] has as its system human corneal epithelial cells. In words: WST-1 cell viability assay under oxidative stress (H2O2 100 µM, 24 hours). As to conditions: H2O2 group 79 ± 14%, untreated control 100 ± 3%. Format: cell-based. As to the method: (§1) Human corneal epithelial cells (hCEC; SCCE016; Merck Millipore, Burlington, MA, USA) were cultured in corneal epithelial cell growth medium with supplement mix (LGC Standards, Teddington, United Kingdom). Approximately 10,000 hCECs were seeded onto each well of a 96-well cell-culture dishes (NUNC, Langenselbold, Germany). Confluent cells were used for Water-soluble tetrazolium salt (WST-1) cell proliferation assays (Hoffmann-La Roche AG, Basel, Switzerland). After 24 hours of incubation with 100 µl of corneal epithelial cell growth medium without its' supplement mix (LGC Standards, Teddington, United Kingdom), hCECs were treated with different concentrations of astragaloside IV (AIV; Selleckchem, Houston, TX, USA) dissolved in dimethyl sulfoxide (DMSO; Carl Roth AG, Karlsruhe, Germany). Control groups were treated with DMSO only. Following another 72 hours of incubation, the cells were incubated with the WST-1 solution for 30 minutes. Substrate turnover was measured with an ELISA reader at 450 nm (Spectramax 190; Molecular Devices, Sunnyvale, CA, USA) and a reference at 690 nm.
To determine potential anti-oxidative effects of astragaloside IV, hCECs were incubated and treated analogous to the above-mentioned WST-1 cell proliferation assay with minor modifications. […]
(In general: Formazan colour is commonly taken as a measure of viable cells.)

Another assay relates to bovine corneas. In words: Corneal erosion assay ex vivo (epithelial wound healing), follow-up 72 hours. The conditions noted are these: 1 µM or 2.5 µM, every 12 hours up to 72 hours, versus DMSO-treated control, p > 0.05 for all groups. As to the method:
Furthermore, corneal epithelial cell wound healing was determined on bovine corneas ex vivo. Bovine globes were obtained from a local butchery following approval by the authority for waste management of animal carcasses (ID: DE 09 162 0066-219) and processed within 12 hours post-mortem. The bovine globes were washed in 10% w/v povidone-iodine for 5 minutes. A circular corneal epithelial erosion was created using an 8 mm trephine and a hockey knife (Katena Products Inc., Parsippany, NJ, USA). Subsequently, a sclerocorneal ring was excised with eye scissors (Katena Products Inc., Parsippany, NJ, USA) and transferred to a 60 mm cell culture plate. To acquire reference images of the corneal erosion, the wound area was stained with a 0.8 mg/ml fluorescein sodium solution and illuminated with blue light (approximate wavelength 490 nm). Images were acquired using a distance-fixed digital single lens reflex camera equipped with a macro lens (Canon Inc., Tokyo, Japan). Consequently, the sclerocorneal rings were incubated in Dulbecco's Modified Eagle's Medium (Bio&SELL GmbH, Feucht, Germany) supplemented with 50 IU penicillin/ml and 50 µg streptomycin/ml (Merck Millipore, Burlington, MA, USA) and astragaloside IV or DMSO only. Follow-up images were acquired every 12 hours, the cell culture medium was renewed daily.

The test system of assay [3] is hCEC. The assay can be described thus: Cell scratch assay (migration / wound healing in vitro), follow-up up to 72 hours. In kind it is cell-based, Human. As to conditions: 1 µM, 2.5 µM; follow-up of 72 hours; versus DMSO-only control; p > 0.05 for all groups. As for the experimental part:
To analyze hCEC migration in vitro, cells were cultured in corneal epithelial cell growth medium with supplement mix until confluence of the cells of a 6-well cell culture plate. Following an incubation period of 24 hours in cell culture medium without supplements, 5 linear scratches were performed in each well using a 200 µl pipette tip (Eppendorf AG, Hamburg, Germany). The hCECs were then incubated prospectively under treatment with astragaloside IV or DMSO as a control for up to 72 hours. Reference images were acquired at the beginning of the incubation period using the phase contrast mode on an Axio Observer 7 (Carl Zeiss AG, Jena, Germany). Every 24 hours, follow-up images of 4-5 different scratch sections were acquired. The size of the wound area was analyzed using a semi-automated analysis tool in ImageJ 1.53a (National Institute of Health, Bethesda, MD, USA).

The test system of assay [4] is Human corneal epithelial cells (hCEC). In words: WST-1 cell viability assay, 72 hours of treatment. In kind it is cell-based. The conditions noted are these: DMSO-treated control 100 ± 9%, mean ± standard deviation. As to the method: as §1
Assay [5] has as its system Intracellular, mitochondrial reactive oxygen species (ROS). The assay can be described thus: Dihydrorhodamine-123 (DHR-123) fluorescence assay of ROS under oxidative stress (H2O2, 2 hours). Format: cell-based. The conditions noted are these: Homo sapiens, HCEC, hCECs, percent of DMSO control, H2O2 group 149 ± 9%, p = 0.0006 vs H2O2. As for the experimental part:
Intracellular, mitochondrial reactive oxygen species (ROS) were assessed using the cell membrane permeable dihydrorhodamine-123 (DHR-123) assay (D23806; ThermoFisher Scientific, Waltham, MA, USA) according to the manufacturer's instructions. Measurements were made after exposing human corneal epithelial cells to H2O2, astragaloside IV or DMSO for 2 hours. For ROS staining, cells were incubated with 10 µM DHR-123 for 15 minutes. Nucleus staining was performed using Hoechst 33342 nucleic acid stain (H1399; ThermoFisher Scientific, Waltham, MA, USA). Randomly, a minimum of 3 images of every treatment group were acquired with a 20x fluorescence objective using the aforementioned Axio Observer 7. Results were expressed in percent of fluorescence intensity relative to the baseline measurement in the DMSO control group. For quantification of the fluorescence signals, the microscope software ZEN 3.0 (Carl Zeiss AG, Jena, Germany) was used.

In the case of `CC(C)(O)C1CCC(C)(C2C(O)CC3(C)C4CC(OC5OC(CO)C(O)C(O)C5O)C5C(C)(C)C(OC6OCC(O)C(O)C6O)CCC56CC46CCC23C)O1` [astragaloside IV, (2R,3R,4S,5S,6R)-2-(((2aR,3R,4R,5aS,7R,11aR)-4-hydroxy-3-((2R,5S)-5-(2-hydroxypropan-2-yl)-2-methyltetrahydrofuran-2-yl)-2a,5a,8,8-tetramethyl-9-(((2S,3R,4S,5R)-3,4,5-trihydroxytetrahydro-2H-pyran-2-yl)oxy)hexadecahydrocyclopenta[a]cyclopropa[e]phenanthren-7-yl)oxy)-6-(hydroxymethyl)tetrahydro-2H-pyran-3,4,5-triol], the activity at 1 µM in the assay on hCEC [1] (1 µM, p = 0.0028, read-out: corneal epithelial cell proliferation) was determined as 125 ± 26%; in assay [5] (1 µM with H2O2 100 µM) it was 94 ± 7%. In addition, the activity at 2.5 µM came to 126 ± 30% in the assay on hCEC [1] (2.5 µM, p = 0.0017, read-out: corneal epithelial cell proliferation) and 94 ± 15% in assay [5] (2.5 µM with H2O2 100 µM). Besides, the activity at 5 µM in the assay with hCEC [1] (5 µM, not significant, p > 0.9999, read-out: corneal epithelial cell proliferation) was 112 ± 14%. The viability at 1 µM amounted to 91 ± 4% in assay [2] (1 µM with H2O2 100 µM, p = 0.0044 vs H2O2) and 154 ± 33% in assay [4] (1 µM, p < 0.0001). The viability at 2.5 µM in assay [2] (2.5 µM with H2O2 100 µM, p = 0.0002 vs H2O2) was found to be 95 ± 6%; in assay [4] (2.5 µM, p < 0.0001), 149 ± 27%. Further, in the assay on bovine corneas, the speed of re-epithelialization result is given as “did not show any significant difference in the speed of re-epithelialization”. Also, the “corneal epithelial cell migration (scratched hCEC area over time)” value with hCEC [3] is “none of the treatment groups showed a significant decrease of corneal epithelial cell migration”. In addition, the viability at 5 µM in assay [4] (5 µM, p = 0.0003) was found to be 138 ± 22%. Besides, the viability at 10 µM in assay [4] (10 µM, non-significant decrease, p > 0.9999) is 89 ± 5%.

The viability is a read-out of living cells in per cent, often relative to untreated cells.
